SMILES strings stand for the structures. Numbered stars: 1 amine (or outer) side, 2 acyl side, 3 side chain; on linkers, the order of the positions; unused ones are H or OH. Bridge positions count the residues as written; N and C are the ends. Square brackets hold non-standard residues; d marks the D form. Peptide text beside a SMILES is read from it. * marks the point of attachment. Pyrazinoyl(5-oxo-4H) = O=C(c1c[nH]c(=O)cn1)*; Nicotinoyl(6-OMe) = COc1ccc(C(=O)*)cn1; 2Thenoyl(5-Cl) = O=C(c1ccc(Cl)s1)*; Pyrazinecarbonyl = O=C(c1cnccn1)*; Phenoxyacetyl = O=C(COc1ccccc1)*; Cysteamide = C(CS[*:3])N[*:1]; X3 = O=C(Cc1c[nH]c2ccccc12)*; 3Amb = NCc1cccc(C(=O)O)c1; Isovaleryl = CC(C)CC(=O)*; 2Furoyl = O=C(c1ccco1)*; Bz = O=C(c1ccccc1)*; Mpa = O=C(O)CCS

The first experiment deals with T1, thrombin (Homo sapiens, UniProt P00734).
T1 construct: consists of two polypeptide chains of 36 (light chain) and 259 amino acid
As to the kind of experiment: Thrombin inhibition screen of crude macrocycle reactions (residual thrombin activity, fluorogenic substrate Z-Gly-Gly-Arg-AMC). The experiment is classed as biochemical. The settings on record: 10 µM macrocycle concentration; crude reactions, Library 1a-l; scaffold AA1-AA2-AA3 combined with 1-16 or '-'. In a few lines: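 Residual activity was measured as the AMC release rate after adding 50 μM Z-Gly-Gly-Arg-AMC. This followed a 10-min room-temperature preincubation of 2 nM thrombin with 10 μM single macrocycles in pH 7.4 Tris buffer (0.6% DMSO). Percent inhibition was taken against the mean slope of DMSO controls.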
For `O=C1CCSSCCNC(=O)[C@H]2CCCN(C2)C(=O)[C@H](CCCCNC(=O)c2c[nH]c(=O)cn2)NC(=O)[C@H](Cc2ccc(O)cc2)N1` [Y-D1-B4/9], the “percent residual thrombin activity” value was determined as 103.469%.

Regarding `COc1ccc(C(=O)NCCCC[C@@H]2NC(=O)[C@H](Cc3ccc(O)cc3)NC(=O)CCSSCCNC(=O)[C@H]3CCCN(C3)C2=O)cn1` [Y-D1-B4/10], the “percent residual thrombin activity” value was found to be 101.956%.

For `O=C1CCSSCCNC(=O)[C@H]2CCCN(C2)C(=O)[C@H](CCCCNC(=O)c2c[nH]c(=O)[nH]c2=O)NC(=O)[C@H](Cc2ccc(O)cc2)N1` [Y-D1-B4/11], the “percent residual thrombin activity” value came out at 107.832%.

For `O=C1CCSSCCNC(=O)[C@H]2CCCN(C2)C(=O)[C@H](CCCCNC(=O)c2ccc(Cl)s2)NC(=O)[C@H](Cc2ccc(O)cc2)N1` [Y-D1-B4/14], the “percent residual thrombin activity” value amounted to 97.8547%.

On to `Cc1nnsc1C(=O)NCCCC[C@@H]1NC(=O)[C@H](Cc2ccc(O)cc2)NC(=O)CCSSCCNC(=O)[C@H]2CCCN(C2)C1=O` [Y-D1-B4/15], for which the “percent residual thrombin activity” value was determined as 104.272%.

In the case of `NCCCC[C@@H]1NC(=O)[C@H](Cc2ccc(O)cc2)NC(=O)CCSSCCNC(=O)[C@H]2CCCN(C2)C1=O` [Y-D1-B4/-], the “percent residual thrombin activity” value is given as 108.211%.

For `CC1NC(=O)CCSSCCNC(=O)C(CCCCNC(=O)c2ccccc2)NC(=O)C2CCCN2C1=O` (stereo not drawn) [a-B1-D1/1] ([Mpa]APK(Bz)-Cysteamide; disulfide 1-C; configuration not given here), the “percent residual thrombin activity” value came to 107.016%.

For `C[C@H]1NC(=O)CCSSCCNC(=O)[C@H](CCCCNC(=O)c2cnccn2)NC(=O)[C@@H]2CCCN2C1=O` [a-B1-D1/2] ([Mpa][dA]PK(Pyrazinecarbonyl)-Cysteamide; disulfide 1-C), the “percent residual thrombin activity” value was found to be 113.236%.

As for `CC(C)CC(=O)NCCCC[C@@H]1NC(=O)[C@@H]2CCCN2C(=O)[C@@H](C)NC(=O)CCSSCCNC1=O` [a-B1-D1/8] ([Mpa][dA]PK(Isovaleryl)-Cysteamide; disulfide 1-C), the “percent residual thrombin activity” value came out at 110.343%.

For the compound `C[C@H]1NC(=O)CCSSCCNC(=O)[C@H](CCCCNC(=O)c2ccco2)NC(=O)[C@@H]2CCCN2C1=O` [a-B1-D1/16] ([Mpa][dA]PK(2Furoyl)-Cysteamide; disulfide 1-C), the “percent residual thrombin activity” value came out at 111.353%.

Turning to `C[C@H]1NC(=O)CCSSCCNC(=O)[C@H](CCCCNC(=O)c2ccccc2)NC(=O)CCNC1=O` [a-B2-D1/1], the “percent residual thrombin activity” value was found to be 107.599%.

Regarding `C[C@H]1NC(=O)CCSSCCNC(=O)[C@H](CCCCNC(=O)c2c[nH]c(=O)cn2)NC(=O)CCNC1=O` [a-B2-D1/9], the “percent residual thrombin activity” value stood at 102.459%.

On to `C[C@H]1NC(=O)CCSSCCNC(=O)[C@H](CCCCNC(=O)c2c[nH]c(=O)[nH]c2=O)NC(=O)CCNC1=O` [a-B2-D1/11], for which the “percent residual thrombin activity” value was found to be 107.663%.

For the compound `C[C@H]1NC(=O)CCSSCCNC(=O)[C@H](CCCCNC(=O)c2ccco2)NC(=O)CCNC1=O` [a-B2-D1/16], the “percent residual thrombin activity” value is on record as 107.587%.

Regarding `C[C@H]1NC(=O)CCSSCCNC(=O)[C@H](CCCCN)NC(=O)CCNC1=O` [a-B2-D1/-], the “percent residual thrombin activity” value was 105.008%.

Turning to `C[C@H]1NC(=O)CCSSCCNC(=O)[C@@H]2CCCN2C(=O)[C@H](CCCCNC(=O)Cc2c[nH]c3ccccc23)NC1=O` [a-D1-B1/12] ([Mpa][dA]K(X3)P-Cysteamide; disulfide 1-C), the “percent residual thrombin activity” value came to 113.455%.

Consider `C[C@H]1NC(=O)CCSSCCNC(=O)[C@@H]2CCCN2C(=O)[C@H](CCCCNC(=O)c2ccc(Cl)s2)NC1=O` [a-D1-B1/14] ([Mpa][dA]K(2Thenoyl(5-Cl))P-Cysteamide; disulfide 1-C), for which the “percent residual thrombin activity” value amounted to 109.871%.

On to `CC1NC(=O)CCSSCCNC(=O)C2CCCN2C(=O)C(CCCCNC(=O)c2ccco2)NC1=O` (stereo not drawn) [a-D1-B1/16] ([Mpa]AK(2Furoyl)P-Cysteamide; disulfide 1-C; configuration not given here), for which the “percent residual thrombin activity” value was determined as 113.28%.

With `C[C@H]1NC(=O)CCSSCCNC(=O)[C@H]2CCCN(C2)C(=O)[C@H](CCCCNC(=O)c2ccccc2)NC1=O` [a-D1-B4/1], the “percent residual thrombin activity” value is 107.784%.

Consider `C[C@H]1NC(=O)CCSSCCNC(=O)[C@H]2CCCN(C2)C(=O)[C@H](CCCCNC(=O)c2c[nH]c(=O)cn2)NC1=O` [a-D1-B4/9], for which the “percent residual thrombin activity” value was 108.338%.

On to `C[C@H]1NC(=O)CCSSCCNC(=O)c2cccc(c2)CNC(=O)[C@H](CCCCNC(=O)c2cnccn2)NC1=O` [a-D1-B5/2], for which the “percent residual thrombin activity” value came to 104.737%.

As for `CC(C)CC(=O)NCCCC[C@@H]1NC(=O)[C@@H](C)NC(=O)CCSSCCNC(=O)c2cccc(c2)CNC1=O` [a-D1-B5/8] ([Mpa][dA]K(Isovaleryl)[3Amb]-Cysteamide; disulfide 1-C), the “percent residual thrombin activity” value was found to be 99.075%.

As for `COc1ccc(C(=O)NCCCC[C@@H]2NC(=O)[C@@H](C)NC(=O)CCSSCCNC(=O)c3cccc(c3)CNC2=O)cn1` [a-D1-B5/10], the “percent residual thrombin activity” value amounted to 109.062%.

For `C[C@H]1NC(=O)CCSSCCNC(=O)c2cccc(c2)CNC(=O)[C@H](CCCCNC(=O)COc2ccccc2)NC1=O` [a-D1-B5/13], the “percent residual thrombin activity” value is given as 105.866%.

In the case of `C[C@H]1NC(=O)CCSSCCNC(=O)c2cccc(c2)CNC(=O)[C@H](CCCCNC(=O)c2ccc(Cl)s2)NC1=O` [a-D1-B5/14], the “percent residual thrombin activity” value was 102.51%.

As to `C[C@H]1NC(=O)CCSSCCNC(=O)c2cccc(c2)CNC(=O)[C@H](CCCCN)NC1=O` [a-D1-B5/-] ([Mpa][dA]K[3Amb]-Cysteamide; disulfide 1-C), the “percent residual thrombin activity” value came to 108.99%.

For the compound `O=C1CCNC(=O)[C@@H](CO)NC(=O)CCSSCCNC(=O)[C@H](CCCCNC(=O)c2cnccn2)N1` [s-B2-D1/2], the “percent residual thrombin activity” value came out at 113.66%.

For `Cc1cc(C(=O)NCCCC[C@@H]2NC(=O)CCNC(=O)[C@@H](CO)NC(=O)CCSSCCNC2=O)no1` [s-B2-D1/3], the “percent residual thrombin activity” value is 111.495%.

Take `O=C1CCNC(=O)[C@@H](CO)NC(=O)CCSSCCNC(=O)[C@H](CCCCNC(=O)c2c[nH]c(=O)cn2)N1` [s-B2-D1/9]: the “percent residual thrombin activity” value was 109.681%.

Regarding `O=C1CCNC(=O)[C@@H](CO)NC(=O)CCSSCCNC(=O)[C@H](CCCCNC(=O)c2c[nH]c(=O)[nH]c2=O)N1` [s-B2-D1/11], the “percent residual thrombin activity” value was 113.521%.

Consider `O=C(COc1ccccc1)NCCCC[C@@H]1NC(=O)CCNC(=O)[C@@H](CO)NC(=O)CCSSCCNC1=O` [s-B2-D1/13], for which the “percent residual thrombin activity” value is on record as 112.63%.

Regarding `O=C1CCNC(=O)[C@@H](CO)NC(=O)CCSSCCNC(=O)[C@H](CCCCNC(=O)c2ccco2)N1` [s-B2-D1/16], the “percent residual thrombin activity” value is 112.001%.

For the compound `COc1ccc(C(=O)NCCCC[C@@H]2NC(=O)[C@H]3CCCN(C3)C(=O)[C@@H](CO)NC(=O)CCSSCCNC2=O)cn1` [s-B4-D1/10], the “percent residual thrombin activity” value was 109.656%.

For the compound `O=C1CCSSCCNC(=O)[C@H](CCCCNC(=O)c2c[nH]c(=O)[nH]c2=O)NC(=O)[C@H]2CCCN(C2)C(=O)[C@@H](CO)N1` [s-B4-D1/11], the “percent residual thrombin activity” value was determined as 112.975%.

In the case of `O=C(COc1ccccc1)NCCCC[C@@H]1NC(=O)[C@H]2CCCN(C2)C(=O)[C@@H](CO)NC(=O)CCSSCCNC1=O` [s-B4-D1/13], the “percent residual thrombin activity” value is on record as 112.216%.

Turning to `CC(C)[C@@H]1NC(=O)CCSSCCNC(=O)[C@@H]2CCCN2C(=O)[C@H](CCCCNC(=O)c2c[nH]c(=O)cn2)NC1=O` [v-D1-B1/9] ([Mpa]VK(Pyrazinoyl(5-oxo-4H))P-Cysteamide; disulfide 1-C), the “percent residual thrombin activity” value turned out to be 99.656%.

Regarding `COc1ccc(C(=O)NCCCC[C@@H]2NC(=O)[C@H](C(C)C)NC(=O)CCSSCCNC(=O)[C@@H]3CCCN3C2=O)cn1` [v-D1-B1/10] ([Mpa]VK(Nicotinoyl(6-OMe))P-Cysteamide; disulfide 1-C), the “percent residual thrombin activity” value came out at 104.488%.

Regarding `CC(C)[C@@H]1NC(=O)CCSSCCNC(=O)[C@@H]2CCCN2C(=O)[C@H](CCCCNC(=O)Cc2c[nH]c3ccccc23)NC1=O` [v-D1-B1/12] ([Mpa]VK(X3)P-Cysteamide; disulfide 1-C), the “percent residual thrombin activity” value is on record as 99.643%.

Consider `CC(C)[C@@H]1NC(=O)CCSSCCNC(=O)[C@@H]2CCCN2C(=O)[C@H](CCCCNC(=O)COc2ccccc2)NC1=O` [v-D1-B1/13] ([Mpa]VK(Phenoxyacetyl)P-Cysteamide; disulfide 1-C), for which the “percent residual thrombin activity” value came out at 104.766%.

In the case of `CC(C)[C@@H]1NC(=O)CCSSCCNC(=O)[C@@H]2CCCN2C(=O)[C@H](CCCCNC(=O)c2ccc(Cl)s2)NC1=O` [v-D1-B1/14] ([Mpa]VK(2Thenoyl(5-Cl))P-Cysteamide; disulfide 1-C), the “percent residual thrombin activity” value was 97.5215%.

Still in this experiment, the particulars now being: 10 µM macrocycle concentration; macrocycles containing acid 14; crude reaction; original screen.
As to `CC(C)[C@H]1NC(=O)CCSSCCNC(=O)c2cccc(c2)CNC(=O)[C@@H](CNC(=O)c2ccc(Cl)s2)NC1=O` [X v D4 B5], the “% thrombin activity, Original screen” value amounted to 103.4%.

`O=C1CCSSCCNC(=O)c2cccc(c2)CNC(=O)[C@@H](CNC(=O)c2ccc(Cl)s2)NC(=O)[C@@H](Cc2c[nH]c3ccccc23)N1` [X w D4 B5]: the “% thrombin activity, Original screen” value amounted to 95.1%.

Turning to `O=C1CCSSCCNC(=O)C2(CC2)CNC(=O)C2(CCN(C(=O)c3ccc(Cl)s3)CC2)NC(=O)[C@@H](Cc2c[nH]c3ccccc23)N1` [X w D6 B6], the “% thrombin activity, Original screen” value was found to be 89.3%.

For the compound `O=C1CCSSCCNC(=O)C2CCCN(C2)C(=O)C2CC(NC(=O)c3ccc(Cl)s3)CN2C(=O)C(Cc2ccc(O)cc2)N1` (stereo not drawn) [X y D5 B4], the “% thrombin activity, Original screen” value is 109.6%.

Staying with this experiment, now noted: 10 µM macrocycle concentration; macrocycles containing acid 14; crude reaction; replicate reaction and screen.
`CC(C)[C@H]1NC(=O)CCSSCCNC(=O)c2cccc(c2)CNC(=O)[C@@H](CNC(=O)c2ccc(Cl)s2)NC1=O` [X v D4 B5]: the “% thrombin activity, Repeat screen” value was 104.1%.

For `O=C1CCSSCCNC(=O)c2cccc(c2)CNC(=O)[C@@H](CNC(=O)c2ccc(Cl)s2)NC(=O)[C@@H](Cc2c[nH]c3ccccc23)N1` [X w D4 B5], the “% thrombin activity, Repeat screen” value is recorded as 100.3%.

`O=C1CCSSCCNC(=O)C2(CC2)CNC(=O)C2(CCN(C(=O)c3ccc(Cl)s3)CC2)NC(=O)[C@@H](Cc2c[nH]c3ccccc23)N1` [X w D6 B6]: the “% thrombin activity, Repeat screen” value was determined as 97.3%.

Turning to `O=C1CCSSCCNC(=O)C2CCCN(C2)C(=O)C2CC(NC(=O)c3ccc(Cl)s3)CN2C(=O)C(Cc2ccc(O)cc2)N1` (stereo not drawn) [X y D5 B4], the “% thrombin activity, Repeat screen” value worked out at 115.2%.

Values taken from publication PMC9250534, “Synthesis and direct assay of large macrocycle diversities by combinatorial late-stage modification at picomole scale” (Nature Communications, 2022).
